Experimental findings from US10183000B1, “2, 4-dinitroanilino-benzoic acid: novel insulinotropic agent for the treatment of diabetes” (priority 2017, dated 2019) are described below.

For data set [1], the system named is pancreatic islet in diabetic Wistar rats. Put plainly: Quantification of pancreatic islet area and beta-cell number. The class given is in vivo. Particulars: 100 mg/kg, per pancreas section, n=5. From the text: Procedure: The pancreatic islet area (μ2) and the beta-cell number were quantified from overlapped images of pancreas that was immunostained with insulin and DAPI in all islet sections using NIS-Elements image analysis software AR 3.0. The pancreatic islet area (μ2) and the beta-cell number per section were enumerated by using five sections per pancreas, and five rats from each group.

For data set [2] the test system is unchanged. Put plainly: Islets histopathology (H&E) and insulin immunohistochemistry. The class given is in vivo. Particulars: 100 mg/kg. How it is done: Procedure: Pancreata isolated from rats were fixed with 3.7% neutral buffered formalin and embedded in paraffin. The 5 μm thick sections (n=6/group) were stained with eosin and hematoxilin, and evaluated for islets histopathology, after performing deparaffinization and dehydration steps. For immunohistochemistry analysis, briefly the antigen was first retrieved by heating for 40 min at 90° C. in 5.0 mM citrate buffer, pH 4.5. Prior to primary antibody treatment, each section was then cooled at room temperature, and incubated with 1× rotti immunoblocking solution (Carl Roth, Karlsruhe, Germany). The sections were immunostained with mouse K36AC10 monoclonal anti-insulin antibody (1:2,000) (Sigma Aldrich, St. Louis, Mo., USA) for 1 hour in a dark humidified chamber at 37° C. The sections were then immunostained with Alexa Fluor 594 donkey anti-mouse IgM secondary antibody (1:200)(Jackson ImmunoResearch, Pa., USA) for 1 hour in a dark chamber at 37° C. for detention. Finally, beta cells nuclei were stained with DAPI (1:5,000) (Sigma Aldrich, St, Louis, Mo., USA). The stained sections were observed under Nikon 90i microscope, equipped with DXM-1200 digital camera (Nikon, Tokyo, Japan).

For data set [3], the system named is STZ-induced diabetic rats. Put plainly: Serum insulin levels by rat insulin ELISA. Type of data set: in vivo, Wistar rats. The note with it: 100 mg/kg, 8 weeks, vs STZ-induced diabetic group. How it is done:
(§1) Blood glucose levels and body weight of each group were monitored on weekly basis under fasting states. Blood samples were drawn from tail vein to measure the glucose levels by blood glucose analyzer. After 8 weeks of the experiments, rats under 8 hours of fasting states were anaesthetized by phenobarbital sodium (60 mg/kg), and blood samples were collected via cardiopuncture. Serum was stored at −80° C. until measurement of the insulin levels. A part of cryopreserved isolated pancreas was used for the measurement of pancreatic insulin contents. Briefly, pancreas were homogenized in an acid-ethanol solution (75% ethanol, 1.5% HCl, and 23.5% deionized water), and the mixture was kept for 4 hours at 4° C. to extract the insulin. Serum- and isolated pancreatic insulin contents were measured by rat insulin ELISA kit (Amersham Biosciences, N.J., USA).
Background: In an ELISA, binding on a coated surface is turned into a signal by an enzyme label.

Data set [4] concerns STZ-induced diabetic rats. Put plainly: Pancreatic insulin contents by acid-ethanol extraction and rat insulin ELISA. The class given is in vivo, Wistar rats. Particulars: 100 mg/kg, 8 weeks, vs STZ-induced diabetic group. How it is done: as §1
Data set [5] deals with STZ-induced diabetic rats. Put plainly: Mortality on daily oral administration for eight weeks. Particulars: doses up to 100 mg/kg of body weight. Type of data set: in vivo, Wistar rats. Here is the method:
(§2) Diabetes Induction: Prior to induction of diabetes, animals were given a high-fat diet (40% fat content) for two weeks. Diabetes was induced by administrating intraperitoneally a single dose of freshly prepared solution of streptozotocin (45 mg/kg) (Wako, Richmond, USA) in a chilled 0.1 M citrate buffer, pH 4.5. The normal control rats were injected with citrate buffer alone. Fasting blood glucose levels (FBG) were measured after 48 hours, and one week of diabetes induction with a blood glucose analyzer (Accu-Chek®, Roche, Mannheim, Germany). Rats with FBG levels of ≥200 mg/dL were considered diabetic, and randomly divided into diabetic and a compound 1-treated (100 mg/kg) groups. […] This indicated the safety of doses up to 100 mg/kg of body weight.

For data set [6], the system named is STZ-induced diabetic rats. Description: Dose optimization of anti-diabetic effect in STZ-induced diabetic rats. Type of data set: in vivo, Wistar rats. Particulars: 25, 50, and 100 mg/kg in STZ-induced diabetic rats. How it is done:
as §2

For data set [7], the system named is STZ-induced diabetic rats. Put plainly: Fasting blood glucose in STZ-induced diabetic rats, eight weeks of treatment. The class given is in vivo, Wistar rats. How it is done: Animals: Eight weeks old Wistar rats (n=54; 24 males: 30 females) weighing 160-180 g were used in the study. During the eight weeks of the experiment, animals were kept in the animal house with a controlled temperature (25±2°C.), and 12 hours light/dark cycle. Water and standardized food access were provided at libitum.
Diabetes Induction: Prior to induction of diabetes, animals were given a high-fat diet (40% fat content) for two weeks. Diabetes was induced by administrating intraperitoneally a single dose of freshly prepared solution of streptozotocin (45 mg/kg) (Wako, Richmond, USA) in a chilled 0.1 M citrate buffer, pH 4.5. The normal control rats were injected with citrate buffer alone. Fasting blood glucose levels (FBG) were measured after 48 hours, and one week of diabetes induction with a blood glucose analyzer (Accu-Chek®, Roche, Mannheim, Germany). […]
Blood glucose levels and body weight of each group were monitored on weekly basis under fasting states. […] Serum- and isolated pancreatic insulin contents were measured by rat insulin ELISA kit (Amersham Biosciences, N.J., USA).
Statistical Analysis: All results are expressed as means ±SEM. The significance of differences between groups was determined by using one-way ANOVA, and multiple comparisons were performed by Tukey Alpha, post hoc analysis. […]

Entries after “also recorded” stand apart in the source; their conditions may differ.

Regarding `O=C(O)c1ccccc1Nc1ccc([N+](=O)[O-])cc1[N+](=O)[O-]` [Compound 1, 2,4-Dinitroanilino-benzoic acid], in data set [1], the beta-cell number result is “significantly restored” and the islet area entry was “significantly restored”. Moreover, the “degenerative changes / islet atrophy (histopathology)” value in data set [2] (H&E staining, STZ-induced diabetic rats) is given as “markedly attenuated the STZ-induced islet atrophy; also recorded: significantly attenuated”. The “immunofluorescent staining for insulin / residual beta-cell function” value in data set [2] (anti-insulin immunostaining, vs STZ-induced diabetic group) is “increased immunoreactivity for insulin; also recorded: restored the residual beta-cell function”. For the same compound, in data set [3], the serum insulin levels entry was “marked increase in serum insulin levels”. For the same compound, the pancreatic insulin contents result in data set [4] was “increase in pancreatic insulin contents; also recorded: significantly restored”. The mortality entry in data set [5] is on record as “without significant mortality”. In data set [6], the “anti-diabetic effect, dose optimization” value is listed as “dose dependent anti-diabetic effect was observed with a significant effect at 100 mg/kg”. Also, the “FBG levels (in words)” value in data set [7] (100 mg/kg of body weight, long term treatment, vs untreated diabetic group) was “significant reduction in FBG levels”. Further, the FBG in data set [7] (STZ-induced diabetic rats, 100 mg/kg, eight weeks of treatment, mean ± SE, 06 rats, *P<0.05 vs diabetic group) was 126 ± 8* mg/dL.
